Experimental data as given in patent US20060069083A1, “Pesticidal dibenzo(hetero)azepine derivatives” (priority 2002, published 2006).

Key:
[1] = system: Meloidogyne incognita J2 larvae; assay: Root-knot nematode solution assay; format: in vivo; conditions: 100 ppm; read after 72 hours; immobility regarded as mortality
Method: Test Procedures for Root-Knot Nematode Solution Assay (Meloidogyne incognita):
To microtiter plates containing about 1.0 mg of compound, 80:20 acetone was added to each well and the solution was mixed to obtain the desired compound concentration. The aqueous nematode suspension containing 20 to 50 Meloidogyne incognita J2 larvae per […] was added to each plate. The plates were then sealed and they were placed in an incubator at 27° C. and about 50% relative humidity. After 72 hours, the population mortality was read, whereby immobility of nematodes was regarded as mortality.

[2] = system: Yellowfever mosquitos (aedes aegypti); assay: Yellowfever mosquito water treatment test, 4th instar; format: in vivo; conditions: 50 ppm; after 6 days
Method: Yellowfever mosquitos (aedes aegypti)
The test compound (1 Vol % in acetone) was applied to water in glass dishes containing 4th instar aedes aegypti. The test dishes were maintained at about 25° C. and observed daily for mortality. Each test weas replicated in 3 test dishes.

## FC(F)(F)c1ccc2c(c1)C(N1CCN(c3ccccc3)CC1)=Nc1ccccc1S2 [I-A.51]
[1]
  mortality compared to untreated controls: 100%

## Clc1ccc2c(c1)Oc1ccc(Cl)cc1C(N1CCNCC1)=N2 [I-B.23]
[2]
  mortality compared to untreated controls: over 90%
